≈ marks a conversion by molar mass, not a printed value.
Assay: physchem
Details: water

- solubility: 2 µg/mL (≈ 4.7 µM)
Compound: COc1ccc(C(=O)N2CCCc3cc(C4=NNC(=O)SC4C)ccc32)cc1OC (stereo not shown) [thiadiazinone, 5-[1-(3,4-dimethoxybenzoyl)-1,2,3,4-tetrahydroquinolin-6-yl]-6-methyl-3,6-dihydro-1,3,4-thiadiazin-2-one]

— patent publication US20030153585A1, “Pharmaceutical preparations containing 2-pyrrolidone as the dissolving intermediary” (priority 2000, published 2003)
